Molecules are shown by their SMILES.

The series is described as follows: Pharmacokinetics study of mice. The series is classed as in vivo. The following applies: mouse, plasma; male CD-1 mice, 2.5 mpk oral administration vs 0.5 mpk intravenous injection. The text has this: The purpose of this experiment was to study the pharmacokinetics of the test compound in the plasma of male CD-1 mice after intravenous injection and oral administration.
The animals were randomly divided into two groups with 2 males in each group. The compounds were formulated into prescribed preparations. Intravenous formulations were formulated with 5% DMSO/95% (6% hydroxypropyl-β-cyclodextrin) to give a clear solution, and oral preparations were formulated with 0.1% Tween80/0.5% HPMC aqueous solution to give a homogeneous suspension.
Whole blood samples were collected from the saphenous vein of the animals 5 minutes, 15 minutes, 30 minutes, 1 hour, 2 hours, 4 hours, 8 hours, 12 hours, and 24 hours after administration. The whole blood sample was added to the centrifuge tube containing anticoagulant, and centrifuged at 3200 g for 10 minutes at 4° C. The supernatant of plasma was taken, frozen quickly on dry ice, and then stored in a −70±10° C. refrigerator until LC-MS/MS analysis.
WinNonlin™ Version 6.3.0 (Pharsight, Mountain View, Calif.) pharmacokinetic software was used to process the plasma drug concentration data of the compounds with a non-compartmental model. The peak concentration (Cmax), peak time (Tmax) and quantifiable end time were obtained directly from the blood drug concentration-time profile. […]

One may read the bioavailability as the share of a dose that reaches the circulation, judged against a reference dose that is usually intravenous. A high value points to much systemic uptake. As for `CCN1CCN(Cc2cc(F)c(NC(=O)Cc3ccc(-c4cnc5cc(OC)c(OC)cc5c4)nc3)cc2C(F)(F)F)CC1` [Compound 1], the bioavailability is 48.9%.

(Values after US12565481B2, “6,7-dimethoxy-3-(pyridin-2-yl)quinoline compounds for inhibiting RET” (Guangzhou Baiyunshan Pharmaceutical Holdings Co., Ltd. …, priority 2020, dated 2026).)
